Molecular target: TrkA (Homo sapiens (Human), UniProt P04629)
Experiment: TrkA Omnia Assay
Type: biochemical
Conditions: averaged IC50; 20 nM enzyme, 500 μM ATP, 10 μM peptide substrate
Experimental: Trk enzymatic selectivity was assessed using Omnia™ Kinase Assay reagents from Invitrogen Corp. Enzyme (TrkA from Invitrogen Corp.) and test compound (various concentrations) were incubated for 10 minutes at ambient temperature in a 384-well white polypropylene plate (Nunc catalog#267462). Omnia Tyr Peptide #4, as well as ATP, were then added to the plate. Final concentrations were as follows: 20 nM enzyme, 500 μM of ATP, 10 μM peptide substrate. The assay buffer consisted of 25 mM MOPS pH 7.5, 0.005% (v/v) Triton X-100 and 5 mM MgCl2. The production of phosphorylated peptide was monitored continuously for 70 minutes using a Molecular Devices FlexStation II^384 microplate reader (excitation=360 nm; emission=485 nm). Initial rates were calculated from the progress curves. IC50 values were calculated from these rates using either a 4 or 5-parameter logistic curve fit.

Chain of TrkA (P04629 33-796): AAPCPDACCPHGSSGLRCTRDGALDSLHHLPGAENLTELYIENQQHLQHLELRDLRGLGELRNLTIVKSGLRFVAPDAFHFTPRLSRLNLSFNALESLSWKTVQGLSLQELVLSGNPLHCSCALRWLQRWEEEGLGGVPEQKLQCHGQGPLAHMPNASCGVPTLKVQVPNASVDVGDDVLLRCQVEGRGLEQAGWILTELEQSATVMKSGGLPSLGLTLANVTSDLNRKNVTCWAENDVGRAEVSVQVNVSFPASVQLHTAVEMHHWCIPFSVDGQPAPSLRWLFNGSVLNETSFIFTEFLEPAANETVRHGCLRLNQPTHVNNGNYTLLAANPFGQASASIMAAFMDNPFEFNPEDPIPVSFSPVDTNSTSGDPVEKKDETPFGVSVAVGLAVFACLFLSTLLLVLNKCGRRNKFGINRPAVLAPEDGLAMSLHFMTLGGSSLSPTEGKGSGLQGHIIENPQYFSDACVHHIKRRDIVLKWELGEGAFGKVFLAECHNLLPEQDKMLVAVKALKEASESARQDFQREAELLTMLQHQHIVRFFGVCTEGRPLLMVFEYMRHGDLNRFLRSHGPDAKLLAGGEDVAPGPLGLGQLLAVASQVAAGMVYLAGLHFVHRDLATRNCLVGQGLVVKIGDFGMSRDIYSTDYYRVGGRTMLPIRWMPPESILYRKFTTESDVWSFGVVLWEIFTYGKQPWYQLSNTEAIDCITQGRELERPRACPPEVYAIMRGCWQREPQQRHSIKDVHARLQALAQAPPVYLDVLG

| SMILES | IC50 [nM] |
| --- | --- |
| O=C(Nc1c2c(nn1-c1ccccc1)CCC2)N[C@@H]1CN(CC(F)(F)F)C[C@H]1c1ccccc1F (relative stereo) [Example 214, 1-((trans)-4-(2-fluorophenyl)-1-(2,2,2-trifluoroethyl)pyrrolidin-3-yl)-3-(2-phenyl-2,4,5,6-tetrahydrocyclopenta[c]pyrazol-3-yl)urea] | < 100 |
| CNCCN1C[C@@H](NC(=O)Nc2c3c(nn2-c2ccccc2)CCC3)[C@H](c2ccc(F)cc2)C1 (relative stereo) [Example 256, 1-((trans)-4-(4-fluorophenyl)-1-(2-(methylamino)ethyl)pyrrolidin-3-yl)-3-(2-phenyl-2,4,5,6-tetrahydrocyclopenta[c]pyrazol-3-yl)urea] | 100 to 1000 |
| O=C(Nc1c2c(nn1-c1ccccc1)CCC2)N[C@@H]1CN(Cc2ncc[nH]2)C[C@H]1c1ccccc1 (relative stereo) [Example 257, 1-((trans)-1-((1H-imidazol-2-yl)methyl)-4-phenylpyrrolidin-3-yl)-3-(2-phenyl-2,4,5,6-tetrahydrocyclopenta[c]pyrazol-3-yl)urea] | 100 to 1000 |
| COCCN1C[C@@H](NC(=O)Nc2c(C)c(-c3cnn(C)c3)nn2-c2ccccc2)[C@H](c2ccc(F)c(Cl)c2)C1 (relative stereo) [Example 293, 1-(trans-4-(3-chloro-4-fluorophenyl)-1-(2-methoxyethyl)pyrrolidin-3-yl)-3-(1′,4-dimethyl-1-phenyl-1H,1′H-[3,4′-bipyrazol]-5-yl)urea] | < 100 |
| COCCN1C[C@@H](NC(=O)Nc2c(C)c(-c3cnn(C)c3)nn2-c2ccccc2)[C@H](c2ccc(Cl)c(F)c2)C1 (relative stereo) [Example 294, 1-(trans-4-(4-chloro-3-fluorophenyl)-1-(2-methoxyethyl)pyrrolidin-3-yl)-3-(1′,4-dimethyl-1-phenyl-1H,1′H-[3,4′-bipyrazol]-5-yl)urea] | < 100 |
| COCCN1C[C@@H](NC(=O)Nc2c(C)c(-c3cnn(C)c3)nn2-c2ccccc2)[C@H](c2cc(F)cc(Cl)c2)C1 (relative stereo) [Example 295, 1-(trans-4-(3-chloro-5-fluorophenyl)-1-(2-methoxyethyl)pyrrolidin-3-yl)-3-(1′,4-dimethyl-1-phenyl-1H,1′H-[3,4′-bipyrazol]-5-yl)urea] | < 100 |
| COCCN1C[C@@H](NC(=O)Nc2c(C)c(-c3cnn(C)c3)nn2-c2ccccc2)[C@H](c2cccc(Cl)c2)C1 (relative stereo) [Example 296, 1-(trans-4-(3-chlorophenyl)-1-(2-methoxyethyl)pyrrolidin-3-yl)-3-(1′,4-dimethyl-1-phenyl-1H,1′H-[3,4′-bipyrazol]-5-yl)urea] | < 100 |
| CNC(=O)c1nn(-c2ccccc2)c(NC(=O)N[C@@H]2CN(CCOC)C[C@H]2c2ccc(F)c(Cl)c2)c1C (relative stereo) [Example 301, 5-(3-(trans-4-(3-chloro-4-fluorophenyl)-1-(2-methoxyethyl)pyrrolidin-3-yl)ureido)-N,4-dimethyl-1-phenyl-1H-pyrazole-3-carboxamide] | < 100 |
| CNC(=O)c1nn(-c2ccccc2)c(NC(=O)N[C@@H]2CN(CCOC)C[C@H]2c2ccc(Cl)c(F)c2)c1C (relative stereo) [Example 302, 5-(3-(trans-4-(4-chloro-3-fluorophenyl)-1-(2-methoxyethyl)pyrrolidin-3-yl)ureido)-N,4-dimethyl-1-phenyl-1H-pyrazole-3-carboxamide] | < 100 |
| COCCN1C[C@@H](NC(=O)Nc2c(C)c(-c3ccn(C)c(=O)c3)nn2-c2ccccc2)[C@H](c2ccc(Cl)c(F)c2)C1 (relative stereo) [Example 303, 1-(trans-4-(4-chloro-3-fluorophenyl)-1-(2-methoxyethyl)pyrrolidin-3-yl)-3-(4-methyl-3-(1-methyl-2-oxo-1,2-dihydropyridin-4-yl)-1-phenyl-1H-pyrazol-5-yl)urea] | < 100 |

From patent publication US10323022B2, “Pyrrolidinyl urea, pyrrolidinyl thiourea and pyrrolidinyl guanidine compounds as TrkA kinase inhibitors” (Array BioPharma Inc., priority 2011, dated 2019)
